According to ChEMBL document CHEMBL1201862, “PubChem BioAssay data set” (2004):
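Following 48 hours of exposure in 96-well plates, responses at five concentrations were used to interpolate endpoints linearly. GI50: concentration for 50% inhibition of growth.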 The source made the active and inactive calls. Rule as the data show it: active = GI50 up to about 1.1 µM and inactive = higher.

What was measured:
Experiment in all cases: NCI tumour cell line growth inhibition, 48 h
NCI-H23 = test system: NCI-H23
MOLT-4 = test system: MOLT-4
HCT-15 = test system: HCT-15
HCC 2998 = test system: HCC 2998
MCF7 = test system: MCF7
K562 = test system: K562
SK-MEL-5 = test system: SK-MEL-5
EKVX = test system: EKVX
SNB-75 = test system: SNB-75
PC-3 = test system: PC-3
HT-29 = test system: HT-29
HOP-92 = test system: HOP-92
COLO 205 = test system: COLO 205
HL-60 = test system: HL-60
CCRF-CEM = test system: CCRF-CEM
RXF 393 = test system: RXF 393
ACHN = test system: ACHN
786-0 = test system: 786-0
BT-549 = test system: BT-549

| Compound | GI50 (NCI-H23) | GI50 (MOLT-4) | GI50 (HCT-15) | GI50 (HCC 2998) | GI50 (MCF7) | GI50 (K562) | GI50 (SK-MEL-5) | GI50 (EKVX) | GI50 (SNB-75) | GI50 (PC-3) | GI50 (HT-29) | GI50 (HOP-92) | GI50 (COLO 205) | GI50 (HL-60) | GI50 (CCRF-CEM) | GI50 (RXF 393) | GI50 (ACHN) | GI50 (786-0) | GI50 (BT-549) |
| --- | --- | --- | --- | --- | --- | --- | --- | --- | --- | --- | --- | --- | --- | --- | --- | --- | --- | --- | --- |
| CC(C)(C)OC(=O)N1Cc2cc(O)ccc2C[C@H]1C(=O)O | > 100 µM (inactive) | > 100 µM (inactive) | > 100 µM | > 100 µM (inactive) | > 100 µM (inactive) | > 100 µM (inactive) | > 100 µM (inactive) | > 100 µM (inactive) | > 100 µM (inactive) | > 100 µM (inactive) | > 100 µM (inactive) | > 100 µM (inactive) | > 100 µM (inactive) | 0.137 µM (active) | > 100 µM (inactive) | > 100 µM (inactive) | > 100 µM (inactive) | > 100 µM (inactive) |  |
| [O-][S+](Nc1ccccc1)c1ccc(-c2ccccc2)cc1 (stereo unspecified) | > 100 µM (inactive) | > 100 µM (inactive) | > 100 µM | > 100 µM (inactive) | > 100 µM (inactive) | > 100 µM (inactive) | > 100 µM (inactive) | > 100 µM (inactive) |  |  | > 100 µM (inactive) |  | 72.3 µM (inactive) | > 100 µM (inactive) | > 100 µM (inactive) |  | > 100 µM (inactive) | > 100 µM (inactive) | 8.57 µM (inactive) |
| CSc1nc2c(nc(N)n2C2OC(COC(C)=O)C(OC(C)=O)C(OC(C)=O)C2OC(C)=O)c(=O)n1C (stereo unspecified) | > 100 µM (inactive) | > 100 µM (inactive) | > 100 µM | > 100 µM (inactive) |  | > 100 µM (inactive) | > 100 µM (inactive) | > 100 µM (inactive) | > 100 µM (inactive) |  | > 100 µM (inactive) | > 100 µM (inactive) | > 100 µM (inactive) | > 100 µM (inactive) | > 100 µM (inactive) | > 100 µM (inactive) | > 100 µM (inactive) | > 100 µM (inactive) |  |
| COc1ccc2c(c1)C1=NCCN(CCO)c3ccc([N+](=O)[O-])c(c31)N2 | 0.652 µM (active) | 0.0755 µM (active) | 0.75 µM | 0.574 µM (active) | 0.42 µM (active) | 0.222 µM (active) | 0.366 µM (active) | 0.705 µM (active) | 0.578 µM (active) | 0.34 µM (active) | 0.324 µM (active) | 0.395 µM (active) | 0.298 µM (active) | 0.34 µM (active) | 0.18 µM (active) | 0.494 µM (active) | 0.348 µM (active) | 0.22 µM (active) |  |
| CC(CO)CCNc1ncnc2c1ncn2CCC#N (stereo unspecified) | > 100 µM (inactive) | > 100 µM (inactive) |  | > 100 µM (inactive) | > 100 µM (inactive) | > 100 µM (inactive) | > 100 µM (inactive) | > 100 µM (inactive) | > 100 µM (inactive) | > 100 µM (inactive) | > 100 µM (inactive) | > 100 µM (inactive) | > 100 µM (inactive) | > 100 µM (inactive) | > 100 µM (inactive) | > 100 µM (inactive) | > 100 µM (inactive) | > 100 µM (inactive) |  |
| O=C(c1cccnc1)N1N=C(c2ccc3c(c2)OCO3)CC1(O)c1cc(F)c(Cl)cc1Cl (stereo unspecified) | 24.9 µM (inactive) | 15.3 µM (inactive) | 18 µM |  |  | 27.9 µM (inactive) | 15 µM (inactive) | 20.5 µM (inactive) | 15.2 µM (inactive) | 21.5 µM (inactive) | 17.7 µM (inactive) | 20.7 µM (inactive) | 15.1 µM (inactive) | 20.2 µM (inactive) | 19.1 µM (inactive) | 12.7 µM (inactive) | 17.7 µM (inactive) | 18.6 µM (inactive) | 20.9 µM (inactive) |
